target: T1, E. coli DdlB enzyme (D-alanine:D-alanine ligase) (Escherichia coli, UniProt P07862); assay: biochemical; settings: fragment library screening; tested concentration 1.7 mM; read-out: DdlB RA
T1 construct: made in house; host or cells: E. coli

Compound | remaining activity at 1700 µM [%]
Cc1cc(-c2ccc(Cl)cc2)nc2cc(C(=O)O)nn12 [Compound D717-0161] | 88

same assay, conditions: fragment library screening; tested concentration 1.8 mM; read-out: DdlB RA

Compound | remaining activity at 1800 µM [%]
O=C(O)COCC(=O)Nc1ccc(-c2nn[nH]n2)cc1 [Compound D047-0107] | 93
C=CCn1c(N2CCC(C(=O)O)CC2)nc2ccccc21 [Compound D264-0028] | 86

same assay, conditions: fragment library screening; tested concentration 1.9 mM; read-out: DdlB RA

Compound | remaining activity at 1900 µM [%]
O=C(O)Cn1nnc(-c2cccc(-n3cccn3)c2)n1 [Compound 8020-8838] | 92

same assay, conditions: read-out: DdlB RA

Compound | remaining activity at 3200 µM [%]
CCOC(=O)c1cn[nH]c1O [Compound C201-1623] | 101

same assay, conditions: residual activity; tested concentration 1.6 mM; read-out: DdlB RA

Compound | remaining activity at 1600 µM [%]
CN(C)Cc1cc2cc(O)c(-c3cccnc3)cc2n1C [Compound H027-0236C] | 84

same assay, conditions: residual activity; tested concentration 1.7 mM; read-out: DdlB RA

Compound | remaining activity at 1700 µM [%]
CCN1CCN(c2ccc(NC(C)=O)c(C(=O)O)c2)CC1 [Compound F687-0683] | 94

same assay, conditions: residual activity; tested concentration 1.8 mM; read-out: DdlB RA

Compound | remaining activity at 1800 µM [%]
O=C(O)c1ccccc1NCCc1ccc(Cl)cc1 [Compound 8524-6914] | 105
O=C(O)c1cccn2c(=O)c3cc(Cl)ccc3nc12 [Compound C200-9602] | 78
O=c1[nH]c(O)ncc1S(=O)(=O)NC1CCCCC1 [Compound D668-0013] | 99
Cc1nc(O)[nH]c(=O)c1S(=O)(=O)N1CCCCC1 [Compound D668-0306] | 89
CCS(=O)(=O)N1CCCc2cc(NC(C)=O)ccc21 [Compound G504-0524] | 95

same assay, conditions: residual activity; tested concentration 1.9 mM; read-out: DdlB RA

Compound | remaining activity at 1900 µM [%]
O=C(O)c1cccn2c(=O)c3cc(F)ccc3nc12 [Compound C200-9599] | 85
CNC(=O)C1CCCN(S(=O)(=O)c2cccs2)C1 (stereo not shown) [Compound D356-2306] | 86
Cc1nc(O)[nH]c(=O)c1S(=O)(=O)NC(C)(C)C [Compound D668-0207] | 85

same assay, conditions: residual activity; tested concentration 2.0 mM; read-out: DdlB RA

Compound | remaining activity at 2000 µM [%]
CCN1CCOC(=O)C1CC(=O)Nc1ccc(F)cc1 (stereo not shown) [Compound 8563-1154] | 88
Cc1ccc2nc3c(C(=O)O)cccn3c(=O)c2c1 [Compound C200-9601] | 75
O=C(Cn1cc2c(n1)CCCC2)Nc1ccc(F)cc1 [Compound C881-0402] | 79
O=C(O)CC1C(=O)NCCN1C1Cc2ccccc2C1 (stereo not shown) [Compound D236-0050] | 103
CC1CCCN(C(=O)c2nc[nH]c2C(=O)NC(C)C)C1 (stereo not shown) [Compound D340-0776] | 96
O=c1[nH]c(O)ncc1S(=O)(=O)N1CCCC1 [Compound D668-0107] | 94

same assay, conditions: residual activity; tested concentration 2.1 mM; read-out: DdlB RA

Compound | remaining activity at 2100 µM [%]
O=C(O)C1CCCCN1S(=O)(=O)c1ccc(F)cc1 (stereo not shown) [Compound C155-0476] | 90
CCS(=O)(=O)N1CCCc2cc(C(=O)NC)ccc21 [Compound D348-0142] | 92
O=C(O)c1cc2nccc(-c3ccccc3)n2n1 [Compound D717-0041] | 74

same assay, conditions: residual activity; tested concentration 2.2 mM; read-out: DdlB RA

Compound | remaining activity at 2200 µM [%]
CCc1c(C)[nH]c(=O)c(C(=O)O)c1C(N)=O [Compound 8020-6319] | 72
O=C(O)c1cc(-c2ccccc2Cl)on1 [Compound D717-0173] | 107
Cn1cnc(S(=O)(=O)NC2CCCCCCC2)c1 [Compound G404-0427] | 91

same assay, conditions: tested concentration 1.7 mM; read-out: DdlB RA

Compound | remaining activity at 1700 µM [%]
CCCNc1c(N2CCCC(C(=O)OCC)C2)c(=O)c1=O (stereo not shown) [Compound C738-0118] | 108
Cc1ccc(NS(=O)(=O)c2cnc(O)[nH]c2=O)c(C)c1 [Compound D668-0040] | 91
COc1ccc(-c2c(Nc3cccc(C)c3)c(=O)c2=O)cc1 [Compound E470-1008] | 100
O=c1c(O)c(Nc2ccc(CN3CCCCC3)cc2)c1=O [Compound G317-0765] | 92

same assay, conditions: tested concentration 1.8 mM; read-out: DdlB RA

Compound | remaining activity at 1800 µM [%]
COCCn1c(CCC(=O)O)ccc1-c1ccccc1 [Compound D135-0001] | 90
CN(Cc1ccccc1)c1c(-c2ccccc2)c(=O)c1=O [Compound E470-0301] | 103
CCN(CC)CCNc1c(-c2ccccc2)c(=O)c1=O [Compound E470-0370] | 94
O=c1c(-c2ccc(Cl)cc2)c(N2CCOCC2)c1=O [Compound E786-0171] | 141
Cc1cc2nc(COC(=O)c3ccco3)cc(=O)n2o1 [Compound G265-0750] | 92
O=C(Nc1ccc2[nH]c(=O)oc2c1)c1ccc(F)cc1 [Compound G434-0256] | 74

same assay, conditions: tested concentration 1.9 mM; read-out: DdlB RA

Compound | remaining activity at 1900 µM [%]
CC(=O)N1C(C(=O)O)CSC1c1ccc(C)cc1 (stereo not shown) [Compound C796-0200] | 90
O=c1c(NCc2ccccn2)c(-c2ccccc2)c1=O [Compound E470-0290] | 96
Cc1cc2nc(COC(=O)C(C)(C)C)cc(=O)n2o1 [Compound G265-0759] | 97
O=c1c(O)c(N2CCN(c3ccccc3)CC2)c1=O [Compound G317-0478] | 96
O=C(Nc1ccccc1)Nc1ccc2[nH]c(=O)oc2c1 [Compound G434-0096] | 75

same assay, conditions: tested concentration 2.0 mM; read-out: DdlB RA

Compound | remaining activity at 2000 µM [%]
N#Cc1c2c([nH]c(=O)c1C(=O)O)CCCCCC2 [Compound 8020-6316] | 91
CCOc1c(Nc2ccc(OC)cc2)c(=O)c1=O [Compound G317-0026] | 93

same assay, conditions: tested concentration 2.1 mM; read-out: DdlB RA

Compound | remaining activity at 2100 µM [%]
CCC[C@@H]1Cc2nc(O)c(C(=O)O)cc2CO1 [Compound 8330-0016] | 75
O=c1c(-c2ccccc2)c(N2CCOCC2)c1=O [Compound E470-0468] | 91
CCOc1c(Nc2ccc(F)cc2)c(=O)c1=O [Compound G317-0061] | 96

same assay, conditions: tested concentration 2.2 mM; read-out: DdlB RA

Compound | remaining activity at 2200 µM [%]
O=S(=O)(O)c1nnc(-c2ccncc2)[nH]1 [Compound 8020-6014] | 80
Cn1c(-c2ccco2)nnc1S(=O)(=O)O [Compound 8020-6142] | 90
CC1CN(C)C(C)CC1n1nc(O)cc1N (stereo not shown) [Compound D068-0221] | 101
O=c1c(O)c(N2CCc3ccccc3C2)c1=O [Compound G317-0491] | 90
CC(C)c1ccc(Nc2c(O)c(=O)c2=O)cc1 [Compound G317-0548] | 91

same assay, conditions: tested concentration 2.3 mM; read-out: DdlB RA

Compound | remaining activity at 2300 µM [%]
Cc1ccc(C(C)C)cc1S(=O)(=O)O [Compound 8020-8310] | 91
COc1ncccc1S(=O)(=O)N1CCCCC1 [Compound C200-8263] | 100
COc1ccc2ncc(C(=O)O)c(O)c2c1 [Compound D284-0199] | 66
CCS(=O)(=O)N1CCCC1c1ccccc1F (stereo not shown) [Compound D399-0515] | 95
CC(=O)c1cnc2c(C(=O)O)cnn2c1C [Compound D717-0038] | 104
O=c1c(O)c(NCCc2ccccc2)c1=O [Compound G317-0516] | 92
O=C(NC1CC(=O)N(c2cccc(F)c2)C1)C1CC1 (stereo not shown) [Compound G856-7454] | 91

same assay, conditions: tested concentration 2.4 mM; read-out: DdlB RA

Compound | remaining activity at 2400 µM [%]
CCS(=O)(=O)N1CCCC1c1ccc(C)cc1 (stereo not shown) [Compound D399-0123] | 89
O=C(O)Cn1nc(C(F)(F)F)c2c1CCCC2 [Compound F235-1104] | 95
CCOC(=O)c1ccc2oc(=O)[nH]c2c1 [Compound G373-0551] | 92
CCC(=O)Nc1ccc2[nH]c(=O)oc2c1 [Compound G434-0836] | 85

same assay, conditions: tested concentration 2.5 mM; read-out: DdlB RA

Compound | remaining activity at 2500 µM [%]
Cn1nccc1-c1cccc(B(O)O)c1 [Compound 8020-6599] | 93
O=S(=O)(O)c1ccc2[nH]nnc2c1 [Compound 8020-8129] | 93
CCCCCC(C)n1nc(O)cc1N (stereo not shown) [Compound D068-0217] | 103
CCCC(CCC)n1nc(O)cc1N [Compound D068-0218] | 100
CCCCC(CC)n1nc(O)cc1N (stereo not shown) [Compound D068-0219] | 100

same assay, conditions: tested concentration 2.6 mM; read-out: DdlB RA

Compound | remaining activity at 2600 µM [%]
COc1cc(C#N)cc2[nH]c(=O)oc12 [Compound 8020-7090] | 97
O=c1c(O)c(NCc2ccco2)c1=O [Compound G317-0464] | 89
O=c1c(O)c(N2CCCCCC2)c1=O [Compound G317-0465] | 92
Cc1cc(Nc2c(O)c(=O)c2=O)no1 [Compound G317-0569] | 93

same assay, conditions: tested concentration 2.8 mM; read-out: DdlB RA

Compound | remaining activity at 2800 µM [%]
Oc1nc(-c2ccc(F)cc2)no1 [Compound C066-5406] | 97
Cc1ccc(-c2noc(O)n2)cc1 [Compound C066-5428] | 95
Cc1nc(N(C)C)ncc1C(=O)O [Compound C430-1216] | 88
COCC(C)NC(=O)c1cc(C)no1 (stereo not shown) [Compound C625-0074] | 96
N#Cc1ccccc1OCC(=O)O [Compound C790-0277] | 96

same assay, conditions: tested concentration 2.9 mM; read-out: DdlB RA

Compound | remaining activity at 2900 µM [%]
O=C(O)Cn1ccc(=O)[nH]c1=O [Compound D702-0091] | 89

same assay, conditions: tested concentration 3.1 mM; read-out: DdlB RA

Compound | remaining activity at 3100 µM [%]
OB(O)c1ccc2[nH]ncc2c1 [Compound H024-0113] | 93

same assay, conditions: tested concentration 3.3 mM; read-out: DdlB RA

Compound | remaining activity at 3300 µM [%]
O=c1[nH]c2ccc(O)cc2o1 [Compound 8020-7157] | 96
O=c1c(O)c(NC2CC2)c1=O [Compound G317-0511] | 90

same assay, conditions: tested concentration 5.0 mM; read-out: DdlB RA

Compound | remaining activity at 5000 µM [%]
Nc1cc(=O)[nH]o1 [Compound 8020-8247] | 97
